Measurements: ChEMBL document CHEMBL6074624, “FDA-approved small molecule kinase inhibitors for cancer treatment (2001-2015): Medical indication, structural optimization, and binding mode Part I” (Bioorg Med Chem, 2024)
In brackets after ≈: the same amount, converted by molar mass. Values belong to the compound of their own block, whether it stands above or below them.

What was measured:
[1] = system: ACHN; assay: Antiproliferative activity against human ACHN cells assessed as reduction in cell viability measured after 48 hrs by SRB assay; type: functional, cell-based
[2] = system: HT-29; assay: Antiproliferative activity against human HT-29 cells assessed as reduction in cell viability after 72 hrs by MTS assay; type: functional, cell-based; settings: HT-29, 72 h
[3] = molecular target: Proto-oncogene tyrosine-protein kinase Src (Homo sapiens, UniProt P12931)
Chain of Proto-oncogene tyrosine-protein kinase Src (P12931 2-536 limits assumed): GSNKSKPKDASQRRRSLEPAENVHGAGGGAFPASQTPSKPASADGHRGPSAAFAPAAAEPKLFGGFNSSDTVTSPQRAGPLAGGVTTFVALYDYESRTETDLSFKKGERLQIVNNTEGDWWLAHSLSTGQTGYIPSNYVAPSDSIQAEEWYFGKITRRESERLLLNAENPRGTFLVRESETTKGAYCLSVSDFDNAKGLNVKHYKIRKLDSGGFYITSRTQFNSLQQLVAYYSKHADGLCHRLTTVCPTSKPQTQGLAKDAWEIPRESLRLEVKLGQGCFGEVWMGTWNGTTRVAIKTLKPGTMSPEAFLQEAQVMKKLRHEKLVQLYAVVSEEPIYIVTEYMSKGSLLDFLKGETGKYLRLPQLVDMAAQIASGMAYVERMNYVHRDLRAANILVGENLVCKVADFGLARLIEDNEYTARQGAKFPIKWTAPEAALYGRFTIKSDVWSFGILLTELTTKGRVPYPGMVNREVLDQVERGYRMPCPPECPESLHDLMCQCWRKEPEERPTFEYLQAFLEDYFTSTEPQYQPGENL

[4] = system: K562; assay: Antiproliferative activity against human K562 cells assessed as reduction in cell growth; type: functional, cell-based
[5] = molecular target: Hepatocyte growth factor receptor (Homo sapiens, UniProt P08581); assay: Inhibition of c-Met (unknown origin)
[6] = system: NCI-H1975; assay: Growth inhibition of human NCI-H1975 cells; type: functional
[7] = Aqueous solubility of compound at pH 7.4 by LC-MS/MS analysis; type: physicochemical; settings: buffer
[8] = Anticancer activity against human NCI-H1975 cells harboring EGFR L858R/T790M mutant assessed as reduction in cell viability measured after 72 hrs by MTT assay; type: functional, cell-based; settings: NCI-H1975, 72 h
[9] = system: PC-9; assay: Growth inhibition of human PC-9 cells; type: functional
[10] = system: Calu-3; assay: Growth inhibition of human Calu-3 cells; type: functional
[11] = system: PC-9; assay: Antiproliferative activity against human PC-9 cells harboring EGFR L858R mutant assessed as reduction in cell viability measured after 72 hrs by SRB assay; type: functional, cell-based; settings: PC-9, 72 h
[12] = molecular target: Voltage-gated inwardly rectifying potassium channel KCNH2 (Homo sapiens, UniProt Q12809); assay: Inhibition of hERG; type: toxicity
Chain of Voltage-gated inwardly rectifying potassium channel KCNH2 (Q12809 whole entry): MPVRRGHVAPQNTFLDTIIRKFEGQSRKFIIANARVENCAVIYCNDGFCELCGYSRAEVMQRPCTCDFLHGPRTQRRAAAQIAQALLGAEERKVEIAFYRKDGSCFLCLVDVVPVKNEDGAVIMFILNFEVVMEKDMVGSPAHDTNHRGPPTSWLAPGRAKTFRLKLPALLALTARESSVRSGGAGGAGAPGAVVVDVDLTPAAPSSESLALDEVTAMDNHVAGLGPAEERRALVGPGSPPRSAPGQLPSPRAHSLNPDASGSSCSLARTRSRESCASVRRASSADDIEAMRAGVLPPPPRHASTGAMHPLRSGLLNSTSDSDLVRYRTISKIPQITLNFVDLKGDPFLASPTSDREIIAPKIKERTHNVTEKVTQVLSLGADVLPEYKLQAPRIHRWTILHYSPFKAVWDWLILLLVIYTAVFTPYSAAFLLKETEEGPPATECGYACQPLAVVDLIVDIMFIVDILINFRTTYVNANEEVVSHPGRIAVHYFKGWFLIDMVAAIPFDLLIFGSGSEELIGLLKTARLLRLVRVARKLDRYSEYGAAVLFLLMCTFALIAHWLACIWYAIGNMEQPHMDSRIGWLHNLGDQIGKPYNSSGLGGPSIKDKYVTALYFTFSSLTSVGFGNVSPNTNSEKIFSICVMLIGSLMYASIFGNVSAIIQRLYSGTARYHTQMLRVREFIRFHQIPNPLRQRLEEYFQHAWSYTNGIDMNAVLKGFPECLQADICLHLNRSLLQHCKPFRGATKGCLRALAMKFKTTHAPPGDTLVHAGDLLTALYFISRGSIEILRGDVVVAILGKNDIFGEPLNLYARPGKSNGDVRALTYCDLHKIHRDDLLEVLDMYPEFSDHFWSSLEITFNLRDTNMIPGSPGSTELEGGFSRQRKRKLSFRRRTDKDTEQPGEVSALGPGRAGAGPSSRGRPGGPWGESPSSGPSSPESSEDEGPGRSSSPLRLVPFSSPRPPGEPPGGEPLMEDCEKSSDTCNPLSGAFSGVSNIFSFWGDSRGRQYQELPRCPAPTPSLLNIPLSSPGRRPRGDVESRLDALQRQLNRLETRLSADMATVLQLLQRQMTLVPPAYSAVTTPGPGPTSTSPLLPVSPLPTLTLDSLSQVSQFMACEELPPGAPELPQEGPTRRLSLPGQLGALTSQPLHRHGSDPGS

[13] = Cytotoxicity against HUVEC cells assessed as reduction in cell viability after 72 hrs by CellTiter-Glo assay; type: toxicity, cell-based; settings: human
[14] = AUC (0 to infinity) in mouse at 50 mg/kg, po; type: ADME, organism-based; settings: in vivo
[15] = molecular target: Fibroblast growth factor receptor 1 (Homo sapiens, UniProt P11362); assay: Inhibition of FGFR1 (unknown origin)
[16] = Inhibition of Bcr-Abl T315Ialpha mutant (unknown origin); set-up: species or system Homo sapiens
[17] = Inhibition of PDGFR (unknown origin) in NIH3T3 cells; type: cell-based, Homo sapiens
[18] = molecular target: T1, Vascular endothelial growth factor receptor 2 (Homo sapiens, UniProt P35968); assay: Inhibition of VEGFR-2 (unknown origin) expressed in NIH3T3 cells assessed as reduction in VEGFA induced protein phosphorylation; type: cell-based
T1 sequence (P35968 whole entry): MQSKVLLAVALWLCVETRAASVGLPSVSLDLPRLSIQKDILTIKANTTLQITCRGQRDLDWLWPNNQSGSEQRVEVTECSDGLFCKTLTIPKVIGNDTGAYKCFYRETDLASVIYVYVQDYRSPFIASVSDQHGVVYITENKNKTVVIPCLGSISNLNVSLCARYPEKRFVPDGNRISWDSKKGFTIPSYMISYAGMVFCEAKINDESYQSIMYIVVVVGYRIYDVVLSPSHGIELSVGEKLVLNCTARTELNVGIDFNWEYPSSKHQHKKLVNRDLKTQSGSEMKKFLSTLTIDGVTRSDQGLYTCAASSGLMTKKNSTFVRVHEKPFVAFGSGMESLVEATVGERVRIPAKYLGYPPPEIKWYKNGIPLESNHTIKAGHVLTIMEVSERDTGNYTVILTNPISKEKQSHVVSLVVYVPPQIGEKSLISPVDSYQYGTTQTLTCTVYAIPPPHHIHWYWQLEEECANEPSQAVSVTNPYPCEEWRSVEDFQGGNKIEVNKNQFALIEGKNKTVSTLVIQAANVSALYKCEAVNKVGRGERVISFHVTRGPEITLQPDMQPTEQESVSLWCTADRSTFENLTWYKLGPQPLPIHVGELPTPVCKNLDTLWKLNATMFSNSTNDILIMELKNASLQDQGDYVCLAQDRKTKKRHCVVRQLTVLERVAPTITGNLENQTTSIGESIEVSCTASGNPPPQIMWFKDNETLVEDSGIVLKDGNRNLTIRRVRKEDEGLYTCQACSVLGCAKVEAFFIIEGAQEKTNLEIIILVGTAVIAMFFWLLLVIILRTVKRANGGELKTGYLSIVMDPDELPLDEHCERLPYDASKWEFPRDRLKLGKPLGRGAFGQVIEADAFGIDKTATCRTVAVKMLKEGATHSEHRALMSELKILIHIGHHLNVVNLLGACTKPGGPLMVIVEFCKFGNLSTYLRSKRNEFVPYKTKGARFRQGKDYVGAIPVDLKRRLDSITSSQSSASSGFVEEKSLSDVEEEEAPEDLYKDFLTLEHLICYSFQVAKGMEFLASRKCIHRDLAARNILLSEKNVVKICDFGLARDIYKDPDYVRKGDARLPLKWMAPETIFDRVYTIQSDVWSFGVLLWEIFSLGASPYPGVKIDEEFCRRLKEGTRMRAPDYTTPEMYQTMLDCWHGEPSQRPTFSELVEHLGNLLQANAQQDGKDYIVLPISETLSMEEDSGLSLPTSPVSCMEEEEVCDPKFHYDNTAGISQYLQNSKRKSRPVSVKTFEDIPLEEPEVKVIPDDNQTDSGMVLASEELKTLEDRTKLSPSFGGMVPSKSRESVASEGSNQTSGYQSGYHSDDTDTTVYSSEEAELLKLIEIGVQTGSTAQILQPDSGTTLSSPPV

[19] = system: NCI-H1975; assay: Antitumor activity against human NCI-H1975 cells xenografted in female nude mouse assessed as tumor growth inhibition at 20 mg/kg, po adminstered once daily for 25 days relative to control; type: functional; settings: NCI-H1975, 600 h, time 25 day, read-out: TGI
[20] = system: HT-29; assay: Antitumor activity against human HT-29 cells xenografted in athymic nude mouse assessed as tumor growth inhibition at 25 mg/kg, ip administered once daily for 21 days relative to control; type: functional; settings: HT-29, 504 h, time 21 day, read-out: TGI
[21] = system: HT-29; assay: Antitumor activity against human HT-29 cells xenografted in athymic nude mouse assessed as tumor growth inhibition at 50 mg/kg, po administered once daily for 21 days relative to control; type: functional; settings: HT-29, 504 h, time 21 day, read-out: TGI
[22] = molecular target: T1, Vascular endothelial growth factor receptor 2; assay: Binding affinity to VEGFR-2 (unknown origin) assessed as inhibition constant
[23] = Clearance in Sprague-Dawley rat at 10 mg/kg, iv by LC-MS/MS analysis; type: ADME, organism-based; settings: in vivo
[24] = Oral bioavailability in Sprague-Dawley rat at 10 mg/kg by LC-MS analysis; type: ADME, organism-based; settings: in vivo
[25] = Volume of distribution at steady state in Sprague-Dawley rat at 10 mg/kg, iv by LC-MS/MS analysis; type: ADME, organism-based; settings: in vivo, read-out: Vdss
[26] = molecular target: Vascular endothelial growth factor receptor 1 (Homo sapiens, UniProt P17948); assay: Inhibition of VEGFR-1 (unknown origin)
Chain of Vascular endothelial growth factor receptor 1 (P17948 whole entry): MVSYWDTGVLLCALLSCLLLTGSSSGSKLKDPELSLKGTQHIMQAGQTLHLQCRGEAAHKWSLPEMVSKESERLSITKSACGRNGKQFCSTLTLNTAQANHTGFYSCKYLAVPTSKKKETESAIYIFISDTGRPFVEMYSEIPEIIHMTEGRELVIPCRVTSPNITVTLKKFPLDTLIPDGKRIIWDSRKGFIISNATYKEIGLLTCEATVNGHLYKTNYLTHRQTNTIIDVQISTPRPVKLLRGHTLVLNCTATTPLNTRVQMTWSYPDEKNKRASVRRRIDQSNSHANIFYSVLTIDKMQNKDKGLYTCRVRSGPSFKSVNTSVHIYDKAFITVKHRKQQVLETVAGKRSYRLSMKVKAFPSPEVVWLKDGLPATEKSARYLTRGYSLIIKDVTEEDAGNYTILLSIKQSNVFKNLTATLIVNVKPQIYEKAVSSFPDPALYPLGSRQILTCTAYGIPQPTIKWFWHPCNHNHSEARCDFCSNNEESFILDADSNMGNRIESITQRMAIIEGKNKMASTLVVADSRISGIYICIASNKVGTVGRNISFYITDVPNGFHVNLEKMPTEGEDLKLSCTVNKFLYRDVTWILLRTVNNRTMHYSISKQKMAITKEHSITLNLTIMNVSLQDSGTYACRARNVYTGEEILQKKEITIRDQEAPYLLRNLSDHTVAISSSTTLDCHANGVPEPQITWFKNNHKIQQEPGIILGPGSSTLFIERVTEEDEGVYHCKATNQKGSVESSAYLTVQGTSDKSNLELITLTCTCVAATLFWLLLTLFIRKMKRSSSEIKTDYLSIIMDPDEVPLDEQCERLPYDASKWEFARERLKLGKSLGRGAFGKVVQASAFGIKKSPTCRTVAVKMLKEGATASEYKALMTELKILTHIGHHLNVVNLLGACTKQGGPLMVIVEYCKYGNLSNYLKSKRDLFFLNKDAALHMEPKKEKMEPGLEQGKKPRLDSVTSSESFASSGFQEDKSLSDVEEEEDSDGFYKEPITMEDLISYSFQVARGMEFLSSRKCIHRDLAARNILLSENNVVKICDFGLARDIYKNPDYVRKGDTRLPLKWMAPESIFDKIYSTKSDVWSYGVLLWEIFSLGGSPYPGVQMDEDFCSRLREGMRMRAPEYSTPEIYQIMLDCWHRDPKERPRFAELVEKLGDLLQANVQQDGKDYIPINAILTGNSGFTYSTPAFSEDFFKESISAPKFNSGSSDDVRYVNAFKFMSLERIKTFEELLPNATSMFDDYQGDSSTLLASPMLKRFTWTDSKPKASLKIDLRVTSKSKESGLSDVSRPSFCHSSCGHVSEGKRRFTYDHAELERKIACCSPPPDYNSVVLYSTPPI

[27] = system: COLO 205; assay: Antitumor activity against human COLO 205 cells xenografted in nu/nu CD-1 mouse assessed as reduction in tumor growth at 100 mg/kg, po administered once daily for 14 days relative to control; type: functional; settings: COLO 205, 336 h, time 14 day, read-out: TGI
[28] = system: 786-0; assay: Antitumor activity against human 786-0 cells xenografted in nu/nu CD-1 mouse assessed as reduction in tumor growth at 10 mg/kg, po administered once daily for 21 days relative to control; type: functional; settings: 786-0, 504 h, time 21 day, read-out: TGI
[29] = system: MDA-MB-231; assay: Antitumor activity against human MDA-MB-231 cells xenografted in nu/nu CD-1 mouse assessed as reduction in tumor growth at 3 mg/kg, po administered once daily for 14 days relative to control; type: functional; settings: MDA-MB-231, 336 h, time 14 day, read-out: TGI
[30] = system: Calu-6; assay: Antitumor activity against human Calu-6 cells xenografted in athymic nude mouse assessed as tumor growth inhibition at 50 mg/kg, po administered once daily for 21 days relative to control; type: functional; settings: Calu-6, 504 h, time 21 day, read-out: TGI
[31] = system: Calu-6; assay: Antitumor activity against human Calu-6 cells xenografted in athymic nude mouse assessed as tumor growth inhibition at 100 mg/kg, po administered once daily for 21 days relative to control; type: functional; set-up: scale not given: the % may be the effect or the level left; settings: time 21 day
[32] = system: Calu-6; assay: Antitumor activity against human Calu-6 cells xenografted in athymic nude mouse assessed as tumor growth inhibition at 12.5 mg/kg, po administered once daily for 21 days relative to control; type: functional; settings: Calu-6, 504 h, time 21 day, read-out: TGI
[33] = system: Calu-6; assay: Antitumor activity against human Calu-6 cells xenografted in athymic nude mouse assessed as tumor growth inhibition at 25 mg/kg, po administered once daily for 21 days relative to control; type: functional; settings: Calu-6, 504 h, time 21 day, read-out: TGI
[34] = Solubility in PBS at pH 7.4 incubated for 24 hrs by HPLC analysis; type: physicochemical
[35] = Half life in rat at 5 mg/kg, po; type: ADME, organism-based; settings: in vivo
[36] = Oral bioavailability in rat at 5 mg/kg measured for 24 hrs by LC-MS/MS analysis; type: ADME, organism-based; settings: in vivo
[37] = Half life in dog at 5 mg/kg, iv; type: ADME, organism-based, Canis lupus familiaris; settings: in vivo
[38] = Oral bioavailability in Sprague-Dawley rat at 5 mg/kg; type: ADME, organism-based; settings: in vivo
[39] = Oral bioavailability in dog at 5 mg/kg; type: ADME, organism-based, Canis lupus familiaris; settings: in vivo
[40] = molecular target: T1, Vascular endothelial growth factor receptor 2; assay: Inhibition of VEGFR2 (unknown origin) phosphorylation in HUVEC cells; type: cell-based
[41] = Half life in Sprague-Dawley rat at 5 mg/kg, iv by LC-MS analysis; type: ADME, organism-based; settings: in vivo

SMILES: Cn1c(=O)cc(Nc2ccc(Cl)cc2)c2c(=O)n(-c3ccccc3)c(=O)n(-c3ccccc3)c21
- IC50 [1]: 4800 nM
- IC50 [2]: 990 nM

SMILES: COc1cc(-c2ccc3[nH]nc(/C=C/c4ccc(OC)c(OC)c4)c3c2)ccc1O
- IC50 at 72 h [13]: 18 nM
- AUC(0-inf) [14]: 300 ng·h/mL

SMILES: Cc1c[nH]c(/C=C2\C(=O)Nc3ccccc32)c1CCC(=O)O
- IC50 [17]: 60900 nM
- IC50 [18]: 400 nM

SMILES: CN(C)C/C=C/C(=O)Nc1cc2c(Nc3ccc(F)c(Cl)c3)ncnc2cc1O[C@H]1CCOC1 [AFATINIB]
- inhibition in vivo at 20 mg/kg [19]: 12%

SMILES: COc1cc(Nc2c(C#N)cnc3cc(OCCCN4CCN(C)CC4)c(OC)cc23)c(Cl)cc1Cl [BOSUTINIB]
- inhibition in vivo at 25 mg/kg [20]: 44%
- inhibition in vivo at 50 mg/kg [21]: 35%

SMILES: COc1cc(/C=C/c2cc(/C=C/c3ccc(O)c(OC)c3)[nH]n2)ccc1O [CURCUMIN PYRAZOLE]
- Ki [22]: 5100 nM

SMILES: Cc1nc(Nc2ncc(C(=O)Nc3c(C)cccc3Cl)s2)cc(N2CCN(CCO)CC2)n1 [DASATINIB ANHYDROUS]
- clearance [23]: 26.4 mL/min/kg
- bioavailability [24]: 27%
- Vd [25]: 6.3 L/kg

SMILES: CNC(=O)c1cc(Oc2ccc(NC(=O)Nc3ccc(Cl)c(C(F)(F)F)c3)c(F)c2)ccn1 [REGORAFENIB]
- inhibition in vivo at 100 mg/kg [27]: 75%
- inhibition in vivo at 10 mg/kg [28]: > 90%
- inhibition in vivo at 3 mg/kg [29]: 81%

Second part, led by results:

- IC50 [1]: 13 nM
- IC50 [2]: 1.5 nM
SMILES: Cn1c(=O)cc(Nc2ccc(I)cc2F)c2c(=O)n(C3CC3)c(=O)n(-c3ccccc3)c21

- IC50 [3]: 15500 nM
SMILES: Cc1ccc(NC(=O)c2cc(C(C)(C)C)on2)cc1/C=C/n1cnc2c(NC3CC3)ncnc21

- IC50 [4]: 20 nM
- IC50 [5]: 121 nM
SMILES: COc1cc2nccc(Nc3ccc(NC(=S)NC(=O)Cc4ccccc4)cc3F)c2cc1OC

- GI50 [6]: 17 nM
- solubility [7]: 43 µM (≈ 22.3 µg/mL)
- GI50 [9]: 19 nM
- GI50 [10]: 846 nM
- IC50 [11]: 21 nM
SMILES: C=CC(=O)Nc1cc(Nc2ncc(Cl)c(-c3cnn4ccccc34)n2)c(OC)cc1C1CC(N(C)C)C1 (stereo not drawn)
- IC50 [8]: 4 nM
- IC50 [12]: 4000 nM

- IC50 [3]: 524 nM
SMILES: Cc1ccc(NC(=O)c2cc(C(F)(F)F)ccn2)cc1C#Cn1cnc2c(NC3CC3)ncnc21

- IC50 [1]: < 3000 nM
- IC50 [2]: > 1000 nM
SMILES: Cn1c(Nc2ccccc2)c2c(=O)n(C3CC3)c(=O)n(-c3ccc(Br)cc3)c2cc1=O

- IC50 [15]: 1900 nM
SMILES: COc1cc(/C=C/c2n[nH]c3ccccc23)ccc1O

- IC50 [3]: 14100 nM
SMILES: Cc1ccc(NC(=O)c2cc(C(F)(F)F)ccn2)cc1/C=C/n1cnc2c(NC3CC3)ncnc21

- IC50 [16]: 359 nM
SMILES: Cc1ccc(NC(=O)c2cc(C(C)(C)C)on2)cc1C#Cn1cnc2c(NC3CC3)ncnc21

- IC50 [26]: 3.4 nM
SMILES: COc1cc2nccc(Oc3ccc(NC(=O)NC4CC4)c(Cl)c3)c2cc1C(N)=O [LENVATINIB]

- solubility at 24 h [34]: 330 µM (≈ 157 µg/mL)
- half-life [35]: 15 h
- bioavailability [36]: > 50%
SMILES: COc1cc2/c(=N/c3ccc(Br)cc3F)nc[nH]c2cc1OCC1CCN(C)CC1 [VANDETANIB]
- inhibition in vivo at 50 mg/kg [30]: 67%
- Activity [31]: 79%
- inhibition in vivo at 12.5 mg/kg [32]: 36%
- inhibition in vivo at 25 mg/kg [33]: 51%

- half-life [37]: 1.1 h
- bioavailability [38]: > 80%
- bioavailability [39]: < 5%
- IC50 [40]: 50 nM
- half-life [41]: 1.3 h
SMILES: COc1cc2c(Nc3ccc(Br)cc3F)ncnc2cc1OCCn1ccnn1 [ZD-4190 FREE BASE]
- Activity [31]: 75%
